Results on 13 compounds are retold here after US6426356B1, “Imidazoethyl thiophenes” (Ortho-McNeil Pharmaceutical, Inc., priority 1998, dated 2002).

For assay [1], the system named is mouse acetylcholine bromide-induced abdominal constriction. Briefly: Mouse acetylcholine bromide-induced abdominal constriction assay (MAIT). As to conditions: po; % inhibition of abdominal constriction; dose not given. The assay is classed as in vivo. On the procedure:
Mouse Acetylcholine Bromide-Induced Abdominal Constriction Assay (MAIT)
The mouse acetylcholine bromide-induced abdominal constriction assay, as described by Collier et al. in Brit. […] The test drugs or appropriate vehicle were administered orally (p.o.) and 30 minutes later the animal received an intraperitoneal (i.p.) injection of 5.5 mg/kg acetylcholine bromide (Matheson, Coleman and Bell, East Rutherford, N.J.). The mice were then placed in groups of three into glass bell jars and observed for a ten minute observation period for the occurrence of an abdominal constriction response (defined as a wave of constriction and elongation passing caudally along the abdominal wall, accompanied by a twisting of the trunk and followed by extension of the hind limbs). The percent inhibition of this response to a nociceptive stimulus (equated to % analgesia) was calculated as follows: The % Inhibition of response, i.e., % analgesia is equal to the difference between the number of control animals responding and the number of drug-treated animals responding times 100 divided by the number of control animals responding.
At least 15 animals were used for control and in each of the drug treated groups.

The target of assay [2] is T1, Alpha-2D Adrenergic Receptor (Rattus norvegicus, UniProt P22909).
T1 construct: aliquots of the synaptic membrane fraction, the ligand ^3H-para-aminoclonidine and test drug; from tissue; host or cells: rat brain cortex synaptic membrane fraction (male Wistar rats)
T1 sequence (P22909 1-465): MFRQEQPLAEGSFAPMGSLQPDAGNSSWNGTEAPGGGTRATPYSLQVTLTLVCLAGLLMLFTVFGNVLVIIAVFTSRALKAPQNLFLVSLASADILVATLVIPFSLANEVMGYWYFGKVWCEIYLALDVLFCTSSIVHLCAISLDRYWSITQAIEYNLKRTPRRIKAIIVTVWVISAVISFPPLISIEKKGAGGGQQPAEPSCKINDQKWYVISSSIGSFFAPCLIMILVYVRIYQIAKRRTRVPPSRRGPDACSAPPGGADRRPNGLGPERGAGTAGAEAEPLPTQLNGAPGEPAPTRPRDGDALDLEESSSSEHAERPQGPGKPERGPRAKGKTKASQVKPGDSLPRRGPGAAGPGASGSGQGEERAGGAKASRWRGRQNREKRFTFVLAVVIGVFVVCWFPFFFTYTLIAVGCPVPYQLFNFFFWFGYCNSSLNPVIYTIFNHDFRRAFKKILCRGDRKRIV
Description: Alpha-2D adrenergic receptor binding assay (3H-para-aminoclonidine, rat cortex synaptic membranes). On the procedure: Alpha-2D Adrenergic Receptor Binding Assay
Male, Wistar rats (150-250 g, VAF, Charles River, Kingston, N.Y.) are sacrificed by cervical dislocation and their brains removed and placed immediately in ice cold HEPES buffered sucrose. The cortex is dissected out and homogenized in 20 volumes of HEPES sucrose in a Teflon™-glass homogenizer. The homogenate is centrifuged at 1000 g for 10 min, and the resulting supernatant centrifuged at 42,000 g for 10 min. The resulting pellet is resuspended in 30 volumes of 3 mM potassium phosphate buffer, pH 7.5, preincubated at 25 ° C. for 30 min and recentrifuged. The resulting pellet is resuspended as described above and used for the receptor binding assay. […] The incubation is terminated by filtration of the tube contents through glass fiber filter sheets. Following washing of the sheets with 10 mM HEPES buffer, the adhering radioactivity is quantified by liquid scintillation spectrometry.
Binding of the test drug to the receptor is determined by comparing the amount of radiolabeled ligand bound in control tubes without drug to the amount of radiolabeled ligand bound in the presence of the drug. Dose-response data are analyzed with LIGAND, a nonlinear curve fitting program designed specifically for the analysis of ligand binding data.

In assay [3] the test system is mouse acetylcholine bromide-induced abdominal constriction. Description: Mouse acetylcholine bromide-induced abdominal constriction assay (MAIT). Conditions: sc; % inhibition of abdominal constriction; dose not given. The assay is classed as in vivo.
Where [4] appears, read: 3H-para-aminoclonidine, rat cortex membranes, read-out: α2D Ki.

Where two headings read alike, the source gives them in different places.

The term Ki denotes a measure of affinity in units of concentration, obtained from inhibition or displacement.

Compound `Cc1ccsc1CCc1c[nH]cn1` [Cp-1] returned an MAIT in assay [1] of 93 po. In assay [2] (setting [4]), the inhibitory constant (Ki) turned out to be 0.075 nM.

Turning to `c1csc(CCc2c[nH]cn2)c1` [Cp-2], in assay [1], the MAIT was found to be 60 po. Moreover, the Ki in assay [2] was 0.1 nM.

In assay [1], `c1nc(CCc2ccsc2)c[nH]1` [Cp-3] showed an MAIT of 53 po. Further, the affinity in assay [2], expressed as Ki, was 0.53 nM.

The compound `Cc1ccc(CCc2c[nH]cn2)s1` [Cp-4] came in with an MAIT in assay [1] of 7 po. In assay [2], the affinity, expressed as Ki, was 1.1 nM.

Consider `CCc1sccc1CCc1c[nH]cn1` [Cp-5], for which the MAIT in assay [1] amounted to 67 po. For the same compound, the Ki in assay [2] (setting [4]) was 1.8 nM.

In the case of `CCc1ccc(CCc2c[nH]cn2)s1` [Cp-6], the MAIT in assay [1] came out at 20 po. This compound also came in with an inhibition constant Ki in assay [2] of 1.2 nM.

Turning to `CCc1csc(CCc2c[nH]cn2)c1` [Cp-8], in assay [1], the MAIT was 20 po. In assay [2], this compound returned an inhibitory constant (Ki) of 0.15 nM.

In turn, `Cc1ccc(/C=C/c2c[nH]cn2)s1` [Cp-12] yielded an MAIT in assay [1] of 7 po. This compound gave a Ki in assay [2] of 22 nM.

The compound `Cc1ccsc1/C=C/c1c[nH]cn1` [Cp-13] gave a Ki in assay [2] of 3.2 nM.

Regarding `Clc1ccc(/C=C/c2c[nH]cn2)s1` [Cp-14], the MAIT in assay [1] is listed as 20 po. In assay [2], the affinity, expressed as Ki, was 17 nM.

In assay [1], `Brc1csc(C=Cc2c[nH]cn2)c1` [Cp-16] gave an MAIT of 20 po. Besides, the Ki in assay [2] was 31 nM.

`CCc1ccc(/C=C/c2c[nH]cn2)s1` [Cp-17] returned an MAIT in assay [3] of 13 sc. Besides, in assay [2], the Ki came out at 22 nM.

In the case of `CCc1csc(C=Cc2c[nH]cn2)c1` [Cp-18], the MAIT in assay [3] is given as 53 sc. In addition, the affinity in assay [2], expressed as Ki, was 26 nM.
